pEC50: −log10 of the molar value. Read-outs that look alike come from different tables or passages of the source.
Target: T1, F508delCFTR (Homo sapiens, UniProt P13569, DEL508-508)
T1 construct: expressed in transfected cells; host or cells: CFBE41o- (human lung derived epithelial cell line), doxycycline-inducible expression
Assay: Cell Surface Expression-Horse Radish Peroxidase (CSE-HRP) assay
Type: cell-based
Conditions: CFBE41o-F508delCFTR-HRP cells; for Maximum % activity (with co-corrector): with co-corrector (2 μM); for Maximum % activity (with co-corrector) / Maximum % activity (without co-corrector): normalized to on-plate positive control, highest concentration 20 μM
How it was run: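 CFBE41o- cells expressed F508delCFTR with HRP in the fourth exofacial loop, induced by 0.5 μg/mL doxycycline for 72 h at 37 °C. Compounds alone or with 2 μM co-corrector ran 18–24 h at 33 °C, 8-point 3-fold from 20 μM. Washed-cell luminol luminescence was normalized to DMSO and positive control, fitted sigmoidally for EC50 (three plates).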

[1] = test compound without co-corrector, 18-24 hours at 33° C., read-out: EC50 (without co-corrector)
[2] = with co-corrector (2 μM of 3-[(2R,4R)-4-({[1-(2,2-difluoro-1,3-benzodioxol-5-yl)cyclopropyl]carbonyl}amino)-7-methoxy-3,4-dihydro-2H-chromen-2-yl]benzoic acid), read-out: EC50 (with co-corrector)

T1 sequence (P13569 with tags, fused parts or gaps DEL508-508): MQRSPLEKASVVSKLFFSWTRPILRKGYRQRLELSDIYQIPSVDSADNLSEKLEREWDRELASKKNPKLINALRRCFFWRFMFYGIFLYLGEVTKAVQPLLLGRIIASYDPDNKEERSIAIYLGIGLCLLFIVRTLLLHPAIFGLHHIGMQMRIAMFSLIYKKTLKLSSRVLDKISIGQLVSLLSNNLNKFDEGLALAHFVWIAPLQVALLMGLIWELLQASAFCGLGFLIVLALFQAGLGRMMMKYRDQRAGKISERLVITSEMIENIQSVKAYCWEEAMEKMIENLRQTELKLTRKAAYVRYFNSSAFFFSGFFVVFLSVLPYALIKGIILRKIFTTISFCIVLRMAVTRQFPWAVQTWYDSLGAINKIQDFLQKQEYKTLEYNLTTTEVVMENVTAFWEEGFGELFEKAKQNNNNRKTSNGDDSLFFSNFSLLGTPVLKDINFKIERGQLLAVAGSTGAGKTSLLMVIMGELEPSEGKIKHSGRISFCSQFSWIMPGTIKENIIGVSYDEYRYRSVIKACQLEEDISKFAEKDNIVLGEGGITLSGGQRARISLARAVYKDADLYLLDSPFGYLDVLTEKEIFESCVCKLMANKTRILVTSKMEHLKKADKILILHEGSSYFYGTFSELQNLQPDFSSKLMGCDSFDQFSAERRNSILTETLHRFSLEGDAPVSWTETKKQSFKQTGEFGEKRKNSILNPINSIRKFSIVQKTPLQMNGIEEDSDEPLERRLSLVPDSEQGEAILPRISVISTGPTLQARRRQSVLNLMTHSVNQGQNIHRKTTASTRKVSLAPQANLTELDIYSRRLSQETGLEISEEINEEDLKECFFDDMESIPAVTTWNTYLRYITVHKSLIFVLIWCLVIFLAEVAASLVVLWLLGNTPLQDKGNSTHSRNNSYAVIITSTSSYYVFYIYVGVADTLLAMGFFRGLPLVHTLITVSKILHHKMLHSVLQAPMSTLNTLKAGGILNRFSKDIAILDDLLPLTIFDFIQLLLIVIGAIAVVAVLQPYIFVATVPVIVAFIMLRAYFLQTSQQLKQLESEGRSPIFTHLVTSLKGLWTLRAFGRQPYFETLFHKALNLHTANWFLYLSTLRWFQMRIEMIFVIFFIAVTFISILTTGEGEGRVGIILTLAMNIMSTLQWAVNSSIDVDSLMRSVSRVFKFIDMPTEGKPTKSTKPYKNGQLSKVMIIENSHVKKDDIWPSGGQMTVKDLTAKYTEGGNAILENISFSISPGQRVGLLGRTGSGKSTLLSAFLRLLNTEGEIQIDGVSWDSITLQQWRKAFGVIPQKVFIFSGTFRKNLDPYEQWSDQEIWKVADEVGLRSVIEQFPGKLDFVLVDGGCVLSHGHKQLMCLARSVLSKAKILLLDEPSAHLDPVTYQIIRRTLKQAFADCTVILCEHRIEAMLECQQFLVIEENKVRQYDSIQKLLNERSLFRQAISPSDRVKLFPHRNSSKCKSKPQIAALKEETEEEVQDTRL

Row | Compound | pEC50 [1] | pEC50 [2] | Maximum % activity (with co-corrector) | Maximum % activity (without co-corrector)
1 | COc1nc2ccccc2cc1CO[C@H]1[C@H](C(C)(C)C)[C@@H](C(=O)O)N(C(=O)[C@@H]2CCCO2)[C@H]1c1ccnn1C(C)C [Example 148, (2S,3R,4S,5S)-3-tert-butyl-4-[(2-methoxyquinolin-3-yl)methoxy]-1-[(2S)-oxolane-2-carbonyl]-5-[1-(propan-2-yl)-1H-pyrazol-5-yl]pyrrolidine-2-carboxylic acid] | < 5.00 | < 5.00 | + (<150) | + (<100)
2 | COc1ncc(C2CCC2)cc1CO[C@H]1[C@H](C(C)(C)C)[C@@H](C(=O)O)N(C(=O)[C@@H]2CCCO2)[C@H]1c1ccccc1C(F)(F)F [Example 155, (2S,3R,4S,5S)-3-tert-butyl-4-[(5-cyclobutyl-2-methoxypyridin-3-yl)methoxy]-1-[(2S)-oxolane-2-carbonyl]-5-[2-(trifluoromethyl)phenyl]pyrrolidine-2-carboxylic acid] | 5.00 to 6.00 | > 6.00 | +++ (≥350) | ++ (≥100 and <200)
3 | COc1ncc(C(F)(F)F)cc1CO[C@H]1[C@H](C(C)(C)C)[C@@H](C(=O)O)N(C(=O)[C@@H]2CCCO2)[C@H]1c1ccccc1C(F)(F)F [Example 156, (2S,3R,4S,5S)-3-tert-butyl-4-{[2-methoxy-5-(trifluoromethyl)pyridin-3-yl]methoxy}-1-[(2S)-oxolane-2-carbonyl]-5-[2-(trifluoromethyl)phenyl]pyrrolidine-2-carboxylic acid] | 5.00 to 6.00 | > 6.00 | +++ (≥350) | ++ (≥100 and <200)
4 | COc1ncc(C(F)(F)F)cc1CO[C@H]1[C@H](C(C)(C)C)[C@@H](C(=O)O)N(C(=O)C2CCC2)[C@H]1c1cccnc1OC(C)C [Example 160, (2S,3R,4S,5S)-3-tert-butyl-1-(cyclobutanecarbonyl)-4-{[2-methoxy-5-(trifluoromethyl)pyridin-3-yl]methoxy}-5-{2-[(propan-2-yl)oxy]pyridin-3-yl}pyrrolidine-2-carboxylic acid] | 5.00 to 6.00 | 5.00 to 6.00 | ++ (≥150 and <350) | + (<100)
5 | COc1ncc(C2CCC2)cc1CO[C@H]1[C@H](C(C)(C)C)[C@@H](C(=O)O)N(C(=O)C2CCC2)[C@H]1c1cccnc1OC(C)C [Example 161, (2S,3R,4S,5S)-3-tert-butyl-1-(cyclobutanecarbonyl)-4-[(5-cyclobutyl-2-methoxypyridin-3-yl)methoxy]-5-{2-[(propan-2-yl)oxy]pyridin-3-yl}pyrrolidine-2-carboxylic acid] | 5.00 to 6.00 | 5.00 to 6.00 | +++ (≥350) | + (<100)

More lines, now with the values ahead:

Row | pEC50 [1] | pEC50 [2] | Maximum % activity (with co-corrector) | Maximum % activity (without co-corrector) | Compound
6 | 5.00 to 6.00 | > 6.00 | +++ (≥350) | ++ (≥100 and <200) | COc1ncc(C2CCC2)cc1CO[C@H]1[C@H](C(C)(C)C)[C@@H](C(=O)O)N(C(=O)[C@@H]2CCCO2)[C@H]1c1ccccc1C1CC1 [Example 149, (2S,3R,4S,5S)-3-tert-butyl-4-[(5-cyclobutyl-2-methoxypyridin-3-yl)methoxy]-5-(2-cyclopropylphenyl)-1-[(2S)-oxolane-2-carbonyl]pyrrolidine-2-carboxylic acid]
7 | 5.00 to 6.00 | > 6.00 | +++ (≥350) | ++ (≥100 and <200) | COc1ncc(C2CCC2)cc1CO[C@H]1[C@H](C(C)(C)C)[C@@H](C(=O)O)N(C(=O)C2CCOCC2)[C@H]1c1ccccc1C1CC1 [Example 150, (2S,3R,4S,5S)-3-tert-butyl-4-[(5-cyclobutyl-2-methoxypyridin-3-yl)methoxy]-5-(2-cyclopropylphenyl)-1-(oxane-4-carbonyl)pyrrolidine-2-carboxylic acid]
8 | > 6.00 | > 6.00 | ++ (≥150 and <350) | + (<100) | COc1nc2ccccc2cc1CO[C@H]1[C@H](C(C)(C)C)[C@@H](C(=O)O)N(C(=O)[C@@H]2CCCO2)[C@H]1c1ccccc1Br [Example 151, (2S,3R,4S,5S)-5-(2-bromophenyl)-3-tert-butyl-4-[(2-methoxyquinolin-3-yl)methoxy]-1-[(2S)-oxolane-2-carbonyl]pyrrolidine-2-carboxylic acid]
9 | > 6.00 | 5.00 to 6.00 | ++ (≥150 and <350) | + (<100) | CCOC(=O)N1[C@H](C(=O)O)[C@@H](C(C)(C)C)[C@H](OCc2cc(C(F)(F)F)cnc2OC)[C@@H]1c1cccc(C(C)(C)C)c1 [Example 152, (2S,3R,4S,5S)-3-tert-butyl-5-(3-tert-butylphenyl)-1-(ethoxycarbonyl)-4-{[2-methoxy-5-(trifluoromethyl)pyridin-3-yl]methoxy}pyrrolidine-2-carboxylic acid]
10 | > 6.00 | > 6.00 | ++ (≥150 and <350) | + (<100) | COc1ncc(C(F)(F)F)cc1CO[C@H]1[C@H](C(C)(C)C)[C@@H](C(=O)O)N(C(=O)OC(C)C)[C@H]1c1cccc(C(C)(C)C)c1 [Example 153, (2S,3R,4S,5S)-3-tert-butyl-5-(3-tert-butylphenyl)-4-{[2-methoxy-5-(trifluoromethyl)pyridin-3-yl]methoxy}-1-{[(propan-2-yl)oxy]carbonyl}pyrrolidine-2-carboxylic acid]
11 | > 6.00 | > 6.00 | ++ (≥150 and <350) | + (<100) | COc1ncc(C(F)(F)F)cc1CO[C@H]1[C@H](C(C)(C)C)[C@@H](C(=O)O)N(C(=O)[C@H]2C[C@@H]3CC[C@H]2O3)[C@H]1c1cccc(C(C)(C)C)c1 [Example 154, (2S,3R,4S,5S)-3-tert-butyl-5-(3-tert-butylphenyl)-4-{[2-methoxy-5-(trifluoromethyl)pyridin-3-yl]methoxy}-1-[(1R,2S,4S)-7-oxabicyclo[2.2.1]heptane-2-carbonyl]pyrrolidine-2-carboxylic acid]
12 | > 6.00 | > 6.00 | +++ (≥350) | ++ (≥100 and <200) | COc1ncc(C(F)(F)F)cc1CO[C@H]1[C@H](C(C)(C)C)[C@@H](C(=O)O)N(C(=O)[C@@H]2CCCCO2)[C@H]1c1cccc(C(C)(C)C)c1 [Example 158, (2S,3R,4S,5S)-3-tert-butyl-5-(3-tert-butylphenyl)-4-{[2-methoxy-5-(trifluoromethyl)pyridin-3-yl]methoxy}-1-[(2S)-oxane-2-carbonyl]pyrrolidine-2-carboxylic acid]
13 | > 6.00 | > 6.00 | +++ (≥350) | + (<100) | COc1ncc(C(F)(F)F)cc1CO[C@H]1[C@H](C(C)(C)C)[C@@H](C(=O)O)N(C(=O)[C@@H]2CCCO2)[C@H]1c1ccccc1Br [Example 159, (2S,3R,4S,5S)-5-(2-bromophenyl)-3-tert-butyl-4-{[2-methoxy-5-(trifluoromethyl)pyridin-3-yl]methoxy}-1-[(2S)-oxolane-2-carbonyl]pyrrolidine-2-carboxylic acid]
